Square brackets hold non-standard residues; d marks the D form. Peptide text beside a SMILES is read from it. Phe(4-NO2) = N[C@@H](Cc1ccc([N+](=O)[O-])cc1)C(=O)O

Six molecules from patent publication US5854216A, “Marker for growth hormone-releasing factor receptors” (Universite de Montreal, priority 1996, dated 1998) can be followed below.

The target of the assay is T1, GRF receptors ([^125 I-Tyr^10 ]hGRF(1-44)NH2 binding sites in rat adenopituitary) (Rattus norvegicus, UniProt Q02644).
T1 construct: from tissue; host or cells: rat anterior pituitary homogenate
T1 sequence (Q02644 23-423 isoform Q02644-2 limits assumed): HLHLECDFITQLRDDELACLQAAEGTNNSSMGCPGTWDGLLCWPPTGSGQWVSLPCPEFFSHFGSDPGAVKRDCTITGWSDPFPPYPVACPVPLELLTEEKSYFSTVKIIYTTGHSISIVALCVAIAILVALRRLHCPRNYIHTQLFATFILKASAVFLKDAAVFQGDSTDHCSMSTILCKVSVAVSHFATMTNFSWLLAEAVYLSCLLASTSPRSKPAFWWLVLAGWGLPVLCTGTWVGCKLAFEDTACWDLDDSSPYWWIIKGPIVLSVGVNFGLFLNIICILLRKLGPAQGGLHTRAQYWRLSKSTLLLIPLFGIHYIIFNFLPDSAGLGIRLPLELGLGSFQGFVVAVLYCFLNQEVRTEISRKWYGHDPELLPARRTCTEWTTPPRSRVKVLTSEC
The assay can be described thus: Competitive binding assay with [^125 I-Tyr^10 ]hGRF(1-44)NH2 on anterior pituitary homogenates. As to conditions: for Relative affinity: ratio IC50 of hGRF(1-29)NH2 /IC50 analogue; for biological activity compared to that of native GRF: rat adenopituitary. On the procedure: The binding of [^125 I-Tyr^10 ]hGRF(1-44)NH2 was performed on anterior pituitary homogenates as previously described (Gaudreau P. et al., J. Biol. Chem., 1992, 35:1864-1869). Briefly, anterior pituitaries (pit.) were dissected out, rinsed and homogenized for 8 sec with a Micro Ultrasonic Cell Disrupter™, in ice-cold 50 mM Tris-HCl buffer, pH 7.4, containing 5 mM MgCl2 and 5 mM EDTA (1 pit./0.5 ml). These homogenates were used immediately. Competition studies were performed using 35-50 pM [^125 I-Tyr^10 ]hGRF(1-44)NH2 as radio-ligand,50 μl of homogenate (70 to 75 μg of protein), and increasing concentrations of Nε-CF-[Lys^31 ]hGRF or other GRF analogues (0-1000 nM) or with 2.4 μM rGRF(1-29)NH2 for determination of non-specific binding, in a total volume of 300 μl of Tris-HCl buffer, pH 7.4, containing 5 mM EDTA, 5 mM MgCl2 and 0.42% BSA. Incubations were carried out at 23° C. for 60 min and stopped by centrifugation (12,000 g, 5 min, at 4° C.). The radioactivity content in the pellet was measured by gamma counting. The affinity of hGRF(1-29)NH2 was tested in each experiment to assess the validity of the assay and determine the relative affinity of the analogues. […] The Hill values indicate that all these peptides bind to the high and low affinity GRF binding sites found in the anterior pituitary.

`CC[C@H](C)[C@H](NC(=O)[C@H](C)NC(=O)[C@H](CC(=O)O)NC(=O)[C@@H](C)NC(=O)[C@@H](N)Cc1ccc(O)cc1)C(=O)N[C@@H](Cc1ccccc1)C(=O)N[C@H](C(=O)N[C@@H](CC(N)=O)C(=O)N[C@@H](CO)C(=O)N[C@H](Cc1ccc(O)cc1)C(=O)N[C@@H](CCCNC(=N)N)C(=O)N[C@@H](CCCCN)C(=O)N[C@H](C(=O)N[C@@H](CC(C)C)C(=O)NCC(=O)N[C@@H](CCC(N)=O)C(=O)N[C@@H](CC(C)C)C(=O)N[C@@H](CO)C(=O)N[C@@H](C)C(=O)N[C@@H](CCCNC(=N)N)C(=O)N[C@H](CCCCN)C(=O)N[C@@H](CC(C)C)C(=O)N[C@@H](CC(C)C)C(=O)N[C@@H](CCC(N)=O)C(=O)N[C@@H](CC(=O)O)C(=O)N[C@H](C(=O)N[C@@H](CCSC)C(=O)N[C@@H](CO)C(=O)N[C@@H](CCCNC(=N)N)C(N)=O)[C@@H](C)CC)C(C)C)[C@@H](C)O` [D-Ala^2, D-Tyr^10, D-Lys^21]: the “biological activity compared to that of native GRF” value is “preserved or increased”. Also, where the note is “Table 11”, the Hill coef. is on record as 0.64 ± 0.05 and the Relative affinity was found to be 21 ± 11%.

For the molecule `CC[C@H](C)[C@H](NC(=O)[C@H](C)NC(=O)[C@H](CC(=O)O)NC(=O)[C@H](C)NC(=O)[C@@H](N)Cc1ccc(O)cc1)C(=O)N[C@@H](Cc1ccccc1)C(=O)N[C@H](C(=O)N[C@@H](CC(N)=O)C(=O)N[C@@H](CO)C(=O)N[C@@H](Cc1ccc([N+](=O)[O-])cc1)C(=O)N[C@@H](CCCNC(=N)N)C(=O)N[C@@H](CCCCN)C(=O)N[C@H](C(=O)N[C@@H](CC(C)C)C(=O)NCC(=O)N[C@@H](CCC(N)=O)C(=O)N[C@@H](CC(C)C)C(=O)N[C@@H](CO)C(=O)N[C@@H](C)C(=O)N[C@@H](CCCNC(=N)N)C(=O)N[C@@H](CCCCN)C(=O)N[C@@H](CC(C)C)C(=O)N[C@@H](CC(C)C)C(=O)N[C@@H](CCC(N)=O)C(=O)N[C@@H](CC(=O)O)C(=O)N[C@H](C(=O)N[C@@H](CCSC)C(=O)N[C@@H](CO)C(=O)N[C@@H](CCCNC(=N)N)C(N)=O)[C@@H](C)CC)C(C)C)[C@@H](C)O` [npa^10, [4'-nitro-phenylalanine^10]hGRF(1-29)NH2] (H-YADAIFTNS[Phe(4-NO2)]RKVLGQLSARKLLQDIMSR-NH2), the “IC50 (in words)” value is given as “low nanomolar range”.

As for `CC[C@H](C)[C@H](NC(=O)[C@H](C)NC(=O)[C@H](CC(=O)O)NC(=O)[C@@H](C)NC(=O)[C@@H](N)Cc1ccc(O)cc1)C(=O)N[C@@H](Cc1ccccc1)C(=O)N[C@H](C(=O)N[C@@H](CC(N)=O)C(=O)N[C@@H](CO)C(=O)N[C@H](Cc1ccc(O)cc1)C(=O)N[C@@H](CCCNC(=N)N)C(=O)N[C@@H](CCCCN)C(=O)N[C@H](C(=O)N[C@@H](CC(C)C)C(=O)NCC(=O)N[C@@H](CCC(N)=O)C(=O)N[C@@H](CC(C)C)C(=O)N[C@@H](CO)C(=O)N[C@@H](C)C(=O)N[C@@H](CCCNC(=N)N)C(=O)N[C@@H](CCCCN)C(=O)N[C@@H](CC(C)C)C(=O)N[C@@H](CC(C)C)C(=O)N[C@@H](CCC(N)=O)C(=O)N[C@@H](CC(=O)O)C(=O)N[C@H](C(=O)N[C@@H](CCSC)C(=O)N[C@@H](CO)C(=O)N[C@@H](CCCNC(=N)N)C(N)=O)[C@@H](C)CC)C(C)C)[C@@H](C)O` [D-Ala^2, D-Tyr^10], the “biological activity compared to that of native GRF” value is given as “preserved or increased”. For the setting “Table 11”, the Hill coef. turned out to be 0.41 ± 0.02 and the Relative affinity stood at 25 ± 3%.

For `CC[C@H](C)[C@H](NC(=O)[C@H](C)NC(=O)[C@H](CC(=O)O)NC(=O)[C@H](C)NC(=O)[C@H](Cc1ccc(O)cc1)NC(=S)Nc1ccc(-c2c3ccc(=O)cc-3oc3cc(O)ccc23)c(C(=O)O)c1)C(=O)N[C@@H](Cc1ccccc1)C(=O)N[C@H](C(=O)N[C@@H](CC(N)=O)C(=O)N[C@@H](CO)C(=O)N[C@@H](Cc1ccc(O)cc1)C(=O)N[C@@H](CCCNC(=N)N)C(=O)N[C@@H](CCCCN)C(=O)N[C@H](C(=O)N[C@@H](CC(C)C)C(=O)NCC(=O)N[C@@H](CCC(N)=O)C(=O)N[C@@H](CC(C)C)C(=O)N[C@@H](CO)C(=O)N[C@@H](C)C(=O)N[C@@H](CCCNC(=N)N)C(=O)N[C@@H](CCCCN)C(=O)N[C@@H](CC(C)C)C(=O)N[C@@H](CC(C)C)C(=O)N[C@@H](CCC(N)=O)C(=O)N[C@@H](CC(=O)O)C(=O)N[C@H](C(=O)N[C@@H](CCSC)C(=O)N[C@@H](CO)C(=O)N[C@@H](CCCNC(=N)N)C(N)=O)[C@@H](C)CC)C(C)C)[C@@H](C)O` [[Nα-fluorescein-5-thiocarbamyl]hGRF(1-29)NH2], where the note is “Table 4”, the Hill coef. is listed as 0.61 ± 0.05 and the Relative affinity came to 19 ± 11%.

As to `CC[C@H](C)[C@H](NC(=O)[C@H](C)NC(=O)[C@H](CC(=O)O)NC(=O)[C@H](C)NC(=O)[C@H](Cc1ccc(O)cc1)NC(=O)[C@@H](N)Cc1ccc([N+](=O)[O-])cc1)C(=O)N[C@@H](Cc1ccccc1)C(=O)N[C@H](C(=O)N[C@@H](CC(N)=O)C(=O)N[C@@H](CO)C(=O)N[C@@H](Cc1ccc(O)cc1)C(=O)N[C@@H](CCCNC(=N)N)C(=O)N[C@@H](CCCCN)C(=O)N[C@H](C(=O)N[C@@H](CC(C)C)C(=O)NCC(=O)N[C@@H](CCC(N)=O)C(=O)N[C@@H](CC(C)C)C(=O)N[C@@H](CO)C(=O)N[C@@H](C)C(=O)N[C@@H](CCCNC(=N)N)C(=O)N[C@@H](CCCCN)C(=O)N[C@@H](CC(C)C)C(=O)N[C@@H](CC(C)C)C(=O)N[C@@H](CCC(N)=O)C(=O)N[C@@H](CC(=O)O)C(=O)N[C@H](C(=O)N[C@@H](CCSC)C(=O)N[C@@H](CO)C(=O)N[C@@H](CCCNC(=N)N)C(N)=O)[C@@H](C)CC)C(C)C)[C@@H](C)O` [npa0], where the note is “Table 7”, the Hill coef. amounted to 0.63 ± 0.09 and the Relative affinity turned out to be 14 ± 5%. The same molecule returned an IC50 (Table 7, mean±SD of 2 or mean±SE of 3-6 experiments for analogues, mean±SE of 29 for hGRF(1-29)NH2) of 18.3 ± 5.9 nM.

Where the note is “Table 11, mean±SD of 2 or mean±SE of 3 experiments for analogues, mean±SE of 11 for hGRF(1-29)NH2”, `CC[C@H](C)[C@H](NC(=O)[C@H](C)NC(=O)[C@H](CC(=O)O)NC(=O)[C@H](C)NC(=O)[C@@H](N)Cc1ccc(O)cc1)C(=O)N[C@@H](Cc1ccccc1)C(=O)N[C@H](C(=O)N[C@@H](CC(N)=O)C(=O)N[C@@H](CO)C(=O)N[C@@H](Cc1ccc(O)cc1)C(=O)N[C@@H](CCCNC(=N)N)C(=O)N[C@@H](CCCCN)C(=O)N[C@H](C(=O)N[C@@H](CC(C)C)C(=O)NCC(=O)N[C@@H](CCC(N)=O)C(=O)N[C@@H](CC(C)C)C(=O)N[C@@H](CO)C(=O)N[C@@H](C)C(=O)N[C@@H](CCCNC(=N)N)C(=O)N[C@@H](CCCCN)C(=O)N[C@@H](CC(C)C)C(=O)N[C@@H](CC(C)C)C(=O)N[C@@H](CCC(N)=O)C(=O)N[C@@H](CC(=O)O)C(=O)N[C@H](C(=O)N[C@@H](CCSC)C(=O)N[C@@H](CO)C(=O)N[C@@H](CCCNC(=N)N)C(=O)NCCCCCCCC(=O)N[C@@H](CS)C(N)=O)[C@@H](C)CC)C(C)C)[C@@H](C)O` [Octanoyl^30, Cys^31, [octanoyl^30,Cys^31] hGRF(1-29)NH2] registered an IC50 of 6.84 ± 2.12 nM.
